Results on 31 compounds are retold here after US20050197350A1, “Novel quinoline, tetrahydroquinazoline, and pyrimidine derivatives and methods of treatment related to the use thereof” (TAISHO PHARMACEUTICAL CO., LTD., priority 2003, published 2005).

Counter-ions that a name gives are not always drawn.

The target of one test is MCH receptor (Homo sapiens, UniProt Q99705). The test can be described thus: High throughput functional screening FLIPR/FDSS6000 (intracellular Ca2+ evoked by MCH). Format: cell-based. The following applies: FLIPR/FDSS, antagonist activity vs 50 nM MCH; class by percent of control at 10^−7 M or IC50; read-out: class. The gist of the method:
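For antagonist testing, compound-treated cells (30 min, 37 °C) were stimulated with 50 nM MCH and intracellular Ca2+ followed by Fluo4 fluorescence on FLIPR/FDSS6000. Receptor was a constitutively active, non-endogenous MCH receptor; dye loading 4 μM Fluo4-AM, 1 h, 37 °C.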
For `Cc1cnc(N[C@H]2CC[C@@H](NC(=O)NC(C)(C)c3ccc(Cl)cc3)CC2)nc1N(C)C` [Example 3264, N-[1-(4-chlorophenyl)-1-methylethyl]-N′-(cis-4-{[4-(dimethylamino)-5-methylpyrimidin-2-yl]amino}cyclohexyl)urea], the IC50 was < 50 nM.
As for `Cc1cc(N(C)C)nc(N[C@H]2CC[C@@H](NC(=O)c3cccnc3S(=O)(=O)c3ccccc3Cl)CC2)n1` [Example 3369, 2-[(2-chlorophenyl)sulfonyl]-N-(cis-4-{[4-(dimethylamino)-6-methylpyrimidin-2-yl]amino}cyclohexyl)nicotinamide], the IC50 lay within 50 to 200 nM.
Take `Cc1cnc(N[C@H]2CC[C@@H](NC(=O)c3cccnc3S(=O)(=O)c3ccc(Br)cc3)CC2)nc1N(C)C` [Example 3289, 2-[(4-bromophenyl)sulfonyl]-N-(cis-4-{[4-(dimethylamino)-5-methylpyrimidin-2-yl]amino}cyclohexyl)nicotinamide]: the IC50 fell in the range of 50 to 200 nM.
The same measure, in the same setting: next, `Cc1ccccc1NC(=O)N[C@H]1CC[C@@H](Nc2ncc(C)c(N(C)C)n2)CC1` [Example 3336, N-(cis-4-{[4-(dimethylamino)-5-methylpyrimidin-2-yl]amino}cyclohexyl)-N′-(2-methylphenyl)urea]: 50 to 200 nM; `Cc1cc(N(C)C)nc(N[C@H]2CC[C@@H](NC(=O)c3cccnc3S(=O)(=O)c3cccc(Cl)c3)CC2)n1` [Example 3370, 2-[(3-chlorophenyl)sulfonyl]-N-(cis-4-{[4-(dimethylamino)-6-methylpyrimidin-2-yl]amino}cyclohexyl)nicotinamide]: 50 to 200 nM; `Cc1cnc(N[C@H]2CC[C@@H](C(=O)NC(C)(C)c3ccc(Cl)cc3)CC2)nc1N(C)C` [Example 3273, cis-N-[1-(4-chlorophenyl)-1-methylethyl]-4-{[4-(dimethylamino)-5-methylpyrimidin-2-yl]amino}cyclohexanecarboxamide]: 50 to 200 nM.
For `Cc1cnc(N[C@H]2CC[C@@H](NC(=O)COc3cc(C(F)(F)F)nn3C)CC2)nc1N(C)C` [Example 3356, N-(cis-4-{[4-(dimethylamino)-5-methylpyrimidin-2-yl]amino}cyclohexyl)-2-{[1-methyl-3-(trifluoromethyl)-1H-pyrazol-5-yl]oxy}acetamide], the IC50 was < 50 nM.
On the same count and under the same terms, as for `Cc1cnc(N[C@H]2CC[C@@H](NC(=O)NCc3ccccc3)CC2)nc1N(C)C` [Example 3341, N-benzyl-N′-(cis-4-{[4-(dimethylamino)-5-methylpyrimidin-2-yl]amino}cyclohexyl)urea], the figure is 50 to 200 nM; as for `Cc1cc(N[C@H]2CC[C@@H](C(=O)N[C@@H](C)c3ccccc3F)CC2)nc2ccccc12` [Example 3312, cis-N-[(1S)-1-(2-fluorophenyl)ethyl]-4-[(4-methylquinolin-2-yl)amino]cyclohexanecarboxamide], < 50 nM.
Turning to `Cc1cnc(N[C@H]2CC[C@@H](NC(=O)[C@@H]3C[C@H]3c3cc(C(F)(F)F)cc(C(F)(F)F)c3)CC2)nc1N(C)C` (relative stereo) [Example 3320, trans-2-[3,5-bis(trifluoromethyl)phenyl]-N-(cis-4-{[4-(dimethylamino)-5-methylpyrimidin-2-yl]amino}cyclohexyl)-cyclopropanecarboxamide], the IC50 was < 50 nM.

Still in this test, the particulars now being: FLIPR/FDSS, antagonist activity vs 50 nM MCH; class by percent of control at 10^−7 M or IC50; table after the classification; read-out: class.
Consider `CN(C)c1nc(N[C@H]2CC[C@@H](NC(=O)c3cccnc3Oc3ccccc3)CC2)nc2c1CCCC2` [Example 3107, N-[cis-4-(4-Dimethylamino-5,6,7,8-tetrahydro-quinazolin-2-ylamino)-cyclohexyl]-2-phenoxy-nicotinamide hydrochloride], for which the IC50 is < 50 nM.
Turning to `O=C(N[C@H]1CC[C@@H](Nc2ccc3ccccc3n2)CC1)c1ccc(Cl)c(F)c1` [Example 3153, 4-Chloro-3-fluoro-N-[cis-4-(quinolin-2-ylamino)-cyclohexyl]-benzamide-hydrochloride], the IC50 was < 50 nM.
On the same count and under the same terms, as for `Cc1cc(N[C@H]2CC[C@@H](NC(=O)c3ccc(Cl)c(F)c3)CC2)nc2ccccc12` [Example 3168, 4-Chloro-3-fluoro-N-[cis-4-(4-methyl-quinolin-2-ylamino)-cyclohexyl]-benzamide hydrochloride], the figure is < 50 nM; as for `Cc1cc(N[C@H]2CC[C@@H](NC(=O)c3ccc(Cl)c(Cl)c3)CC2)nc2ccccc12` [Example 3078, 3,4-Dichloro-N-[cis-4-(4-methyl-quinolin-2-ylamino)-cyclohexyl]-benzamide hydrochloride], < 50 nM; as for `CN(C)c1cc(Cl)nc(N[C@H]2CC[C@@H](NC(=O)c3ccc(F)c(F)c3)CC2)n1` [Example 3234, N-[cis-4-(6-Chloro-4-dimethylamino-pyrimidin-2-ylamino)-cyclohexyl]-3,4-difluoro-benzamide hydrochloride], > 200 nM.
As for `CN(C)c1ccnc(N[C@H]2CC[C@@H](NC(=O)c3ccncc3)CC2)n1` [Example 3210, N-[cis-4-(4-Dimethylamino-pyrimidin-2-ylamino)-cyclohexyl]-isonicotinamide dihydrochloride], the IC50 was > 200 nM.
As for `CN(C)c1ccnc(N[C@H]2CC[C@@H](CNC(=O)c3ccc(F)c(F)c3)CC2)n1` [Example 3219, N-[cis-4-(4-Dimethylamino-pyrimidin-2-ylamino)-cyclohexylmethyl]-3,4-difluoro-benzamide hydrochloride], the IC50 was 50 to 200 nM.
On to `Cc1cc(N(C)C)nc(N[C@H]2CC[C@@H](NC(=O)c3cccc(Cl)c3)CC2)n1` [Example 3128, 3-Chloro-N-[cis-4-(4-dimethylamino-6-methyl-pyrimidin-2-ylamino)-cyclohexyl]-benzamide hydrochloride], for which the IC50 is < 50 nM.
Still for that read-out and setting: next, `CN(C)c1nc(N[C@H]2CC[C@@H](CNC(=O)c3ccc(F)c(F)c3)CC2)nc2c1CCCC2` [Example 3195, N-[cis-4-(4-Dimethylamino-5,6,7,8-tetrahydro-quinazolin-2-ylamino)-cyclohexylmethyl]-3,4-difluoro-benzamide hydrochloride]: 50 to 200 nM; `Cc1cc(N[C@H]2CC[C@@H](NC(=O)c3c(F)cccc3F)CC2)nc2ccccc12` [Example 3165, 2,6-Difluoro-N-[cis-4-(4-methylquinolin-2-ylamino)-cyclohexyl]-benzamide hydrochloride]: 50 to 200 nM.
Same read-out and setting: next, `CN(C)c1ccnc(N[C@H]2CC[C@@H](NC(=O)c3cccnc3Oc3ccc(F)cc3)CC2)n1` [Example 3201, N-[cis-4-(4-Dimethylamino-pyrimidin-2-ylamino)-cyclohexyl]-2-(4-fluoro-phenoxy)-nicotinamide hydrochloride]: < 50 nM; `CN(C)c1nc(N[C@H]2CC[C@@H](NC(=O)c3cccc([N+](=O)[O-])c3)CC2)nc2c1CCCC2` [Example 3112, N-[cis-4-(4-Dimethylamino-5,6,7,8-tetrahydro-quinazolin-2-ylamino)-cyclohexyl]-3-nitro-benzamide hydrochloride]: < 50 nM.
The same measure, in the same setting: next, `CN(C)c1nc(N[C@H]2CC[C@@H](NCc3ccc(Br)cc3OC(F)(F)F)CC2)nc2c1CCCC2` [Example 13, N^2-[cis-4-(4-Bromo-2-trifluoromethoxy-benzyl)-amino-cyclobexyl]-N^4,N^4-dimethyl-5,6,7,8-tetrahydro-quinazoline-2,4-diamine dihydrochloride]: > 200 nM; `CN(C)c1nc(N[C@H]2CC[C@@H](NC(=O)c3cccnc3Oc3ccccc3)CC2)ncc1-c1ccccc1` [Example 3136, N-[cis-4-(4-Dimethylamino-5-phenyl-pyrimidin-2-ylamino)-cyclohexyl]-2-phenoxy-nicotinamide hydrochloride]: > 200 nM.
Take `COc1ccc(Oc2ncccc2C(=O)N[C@H]2CC[C@@H](Nc3ccc4ccccc4n3)CC2)cc1` [Example 3059, 2-(4-Methoxy-phenoxy)-N-[cis-4-(quinolin-2-ylamino)-cyclohexyl]-nicotinamide hydrochloride]: the IC50 is < 50 nM.
For the compound `COc1cc(OC)nc(N[C@H]2CC[C@@H](NC(=O)c3ccc(F)c(F)c3)CC2)n1` [Example 3132, N-[cis-4-(4,6-Dimethoxy-pyrimidin-2-ylamino)-cyclohexyl]-3,4-difluoro-benzamide hydrochloride], the IC50 is > 200 nM.
For `Cc1cnc(N[C@H]2CC[C@@H](NC(=O)c3cccnc3Oc3ccc(F)cc3)CC2)nc1N(C)C` [Example 3123, N-[cis-4-(4-Dimethylamino-5-methyl-pyrimidin-2-ylamino)-cyclohexyl]-2-(4-fluoro-phenoxy)-nicotinamide hydrochloride], the IC50 is < 50 nM.
The same measure, in the same setting: as for `O=C(CNc1ccc(Cl)c(Cl)c1)N[C@H]1CC[C@@H](Nc2ccc3ccccc3n2)CC1` [Example 3067, 2-(3,4-Dichloro-phenylamino)-N-[cis-4-(quinolin-2-ylamino)-cyclohexyl]-acetamide dihydrochloride], the figure is 50 to 200 nM; as for `Cc1cccc(C(=O)N[C@H]2CC[C@@H](Nc3ncc(C)c(N(C)C)n3)CC2)c1` [Example 3121, N-[cis-4-(4-Dimethylamino-5-methyl-pyrimidin-2-ylamino)-cyclohexyl]-3-methyl-benzamide hydrochloride], < 50 nM.
As for `Cc1cccc(OCC(=O)N[C@H]2CC[C@@H](Nc3ccc4ccccc4n3)CC2)c1` [Example 3051, N-[cis-4-(Quinolin-2-ylamino)-cyclohexyl]-2-m-tolyloxy-acetamide hydrochloride], the IC50 was < 50 nM.
On to `CN(C)c1cc(Cl)nc(N[C@H]2CC[C@@H](NC(=O)c3cccnc3Oc3ccccc3)CC2)n1` [Example 3233, N-[cis-4-(6-Chloro-4-dimethylamino-pyrimidin-2-ylamino)-cyclohexyl]-2-phenoxy-nicotinamide hydrochloride], for which the IC50 is > 200 nM.
